# Measurements reported in ChEMBL document CHEMBL1128954, “Discovery of antirhinoviral leads by screening a combinatorial library of ureas prepared using covalent scavengers” (Bioorg Med Chem Lett, 1996).
# pIC50: −log10 of the molar value.
# Assays:
# Human rhinovirus sp. [1] = test: Compound was evaluated for the inhibition of human rhinovirus-14 HRV-14 at 1 ug/ml; type: functional
# Human rhinovirus sp. [2] = test: Compound was evaluated for cytotoxicity against human rhinovirus-14 (HRV-14) in whole cells as cresynthesized product using XTT assay.; type: functional
# Human rhinovirus sp. [3] = test: Compound was evaluated for cytotoxicity against human rhinovirus-14 (HRV-14) in whole cells as combinatorial sample; type: functional
# Human rhinovirus sp. [4] = test: Compound was evaluated for antirhinoviral activity against human rhinovirus-14 (HRV-14) as resynthesized product using XTT assay.; type: functional, organism-based
# Human rhinovirus sp. [5] = test: Compound was evaluated for antirhinoviral activity against human rhinovirus-14 (HRV-14) as combinatorial sample; type: functional, organism-based
# Human rhinovirus sp. [6] = test: Compound was evaluated for antirhinoviral activity against human rhinovirus-14 (HRV-14) in whole cell assay; type: functional, organism-based
SMILES,inhibition at 1 µg/mL (Human rhinovirus sp. [1]),further results
CCCCOC(=O)c1ccc(NC(=O)NCCNC(C)=O)cc1,0%,
CCCCOC(=O)c1ccc(NC(=O)NCCc2ccc(S(N)(=O)=O)cc2)cc1,102%,TC50 (Human rhinovirus sp. [2]): >40000 nM; TC50 (Human rhinovirus sp. [3]): 34000 nM; pIC50 (Human rhinovirus sp. [4]): 6.09; pIC50 (Human rhinovirus sp. [5]): 6.16
CCCCOC(=O)c1ccc(NC(=O)N2CCC(C(N)=O)CC2)cc1,0%,
CCCCOC(=O)c1ccc(NC(=O)N2CCN(c3ccccn3)CC2)cc1,0%,
CCCCOC(=O)c1ccc(NC(=O)NC2CC3CCC2C3)cc1 (stereo not drawn),1%,
CCCCOC(=O)c1ccc(NC(=O)N2CCSCC2)cc1,1%,
CCCCOC(=O)c1ccc(NC(=O)N2CCN(CC(=O)NC(C)C)CC2)cc1,101%,TC50 (Human rhinovirus sp. [2]): >40000 nM; TC50 (Human rhinovirus sp. [3]): >40000 nM; pIC50 (Human rhinovirus sp. [6]): 5.62; pIC50 (Human rhinovirus sp. [6]; Human rhinovirus sp.): 5.74
CCCCOC(=O)c1ccc(NC(=O)N2CCCCC2O)cc1 (stereo not drawn),2%,
CCCCOC(=O)c1ccc(NC(=O)N2CCCC(C(=O)N(CC)CC)C2)cc1 (stereo not drawn),0%,
CCCCOC(=O)c1ccc(NC(=O)N2CCCC(C(N)=O)C2)cc1 (stereo not drawn),1%,
